# Measurements published in ChEMBL document CHEMBL1143794, “Discovery of [7-(2,6-dichlorophenyl)-5-methylbenzo [1,2,4]triazin-3-yl]-[4-(2-pyrrolidin-1-ylethoxy)phenyl]amine--a potent, orally active Src kinase inhibitor with anti-tumor activity in preclinical assays” (Bioorg Med Chem Lett, 2007).
# What was measured:
# CT26 [1] = experiment: Antitumor activity against mouse CT26 cells; type: functional, cell-based
# [2] = molecular target: Proto-oncogene tyrosine-protein kinase Src (Homo sapiens, UniProt P12931)
# [3] = Tmax in mouse at 25 mg/kg, po; type: ADME, organism-based; parameters: dose 25 mg/kg, route oral; conditions: in vivo
# [4] = Tmax in rat at 25 mg/kg, po; type: ADME, organism-based; parameters: dose 25 mg/kg, route oral; conditions: in vivo
# [5] = Tmax in dog at 25 mg/kg, po; type: ADME, organism-based, Canis lupus familiaris; parameters: dose 25 mg/kg, route oral; conditions: in vivo
# [6] = Half life in mouse at 25 mg/kg, po; type: ADME, organism-based; parameters: dose 25 mg/kg, route oral; conditions: in vivo
# [7] = Half life in rat at 25 mg/kg, po; type: ADME, organism-based; parameters: dose 25 mg/kg, route oral; conditions: in vivo
# [8] = Half life in dog at 25 mg/kg, po; type: ADME, organism-based, Canis lupus familiaris; parameters: dose 25 mg/kg, route oral; conditions: in vivo
# Mus musculus [9] = experiment: AUC in mouse at 25 mg/kg, po; type: ADME, organism-based, Plasma; parameters: dose 25 mg/kg, route oral; conditions: in vivo
# Rattus norvegicus [10] = experiment: AUC in rat at 25 mg/kg, po; type: ADME, organism-based, Plasma; parameters: dose 25 mg/kg, route oral; conditions: in vivo
# Canis familiaris [11] = experiment: AUC in dog at 25 mg/kg, po; type: ADME, organism-based, Canis lupus familiaris, Plasma; parameters: dose 25 mg/kg, route oral; conditions: in vivo
# [12] = Clearance in mouse at 25 mg/kg, po; type: ADME, organism-based; parameters: dose 25 mg/kg, route oral; conditions: in vivo
# [13] = Clearance in rat at 25 mg/kg, po; type: ADME, organism-based; parameters: dose 25 mg/kg, route oral; conditions: in vivo
# [14] = Clearance in dog at 25 mg/kg, po; type: ADME, organism-based, Canis lupus familiaris; parameters: dose 25 mg/kg, route oral; conditions: in vivo
# Mus musculus [15] = experiment: Volume of distribution in mouse at 25 mg/kg, po; type: ADME, organism-based; parameters: dose 25 mg/kg, route oral; conditions: in vivo
# Rattus norvegicus [16] = experiment: Volume of distribution in rat at 25 mg/kg, po; type: ADME, organism-based; parameters: dose 25 mg/kg, route oral; conditions: in vivo
# Canis familiaris [17] = experiment: Volume of distribution in dog at 25 mg/kg, po; type: ADME, organism-based, Canis lupus familiaris; parameters: dose 25 mg/kg, route oral; conditions: in vivo
# [18] = Bioavailability in mouse at 25 mg/kg, po; type: ADME, organism-based; conditions: in vivo
# [19] = Bioavailability in rat at 25 mg/kg, po; type: ADME, organism-based; conditions: in vivo
# [20] = Bioavailability in dog at 25 mg/kg, po; type: ADME, organism-based, Canis lupus familiaris; conditions: in vivo
# [21] = molecular target: Platelet-derived growth factor receptor beta (Homo sapiens, UniProt P09619); experiment: Inhibition of PDGFRbeta
# MOLT-4 = experiment: Antitumor activity against Molt4 cells; type: functional, cell-based; conditions: Homo sapiens
# K562 = experiment: Antitumor activity against K562 cells; type: functional, cell-based; conditions: Homo sapiens
# COLO 205 = experiment: Antitumor activity against Colo205 cells; type: functional, cell-based; conditions: Homo sapiens
# HT-29 = experiment: Antitumor activity against HT29 cells; type: functional, cell-based; conditions: Homo sapiens
# MDA-MB-231 = experiment: Antitumor activity against MDA-MB-231 cells; type: functional, cell-based; conditions: Homo sapiens
# MCF7 = experiment: Antitumor activity against MCF7 cells; type: functional, cell-based; conditions: Homo sapiens
# A549 [22] = experiment: Antitumor activity against A549 cells; type: functional, cell-based; conditions: Homo sapiens
# Cytochrome P450 3A4 = Cytochrome P450 3A4 (Homo sapiens, UniProt P08684); experiment: Inhibition of CYP3A4; type: ADME
# Cytochrome P450 1A2 = molecular target: T1, Cytochrome P450 1A2 (Homo sapiens, UniProt P05177); experiment: Inhibition of CYP1A2; type: ADME
# T1 sequence (P05177 whole entry): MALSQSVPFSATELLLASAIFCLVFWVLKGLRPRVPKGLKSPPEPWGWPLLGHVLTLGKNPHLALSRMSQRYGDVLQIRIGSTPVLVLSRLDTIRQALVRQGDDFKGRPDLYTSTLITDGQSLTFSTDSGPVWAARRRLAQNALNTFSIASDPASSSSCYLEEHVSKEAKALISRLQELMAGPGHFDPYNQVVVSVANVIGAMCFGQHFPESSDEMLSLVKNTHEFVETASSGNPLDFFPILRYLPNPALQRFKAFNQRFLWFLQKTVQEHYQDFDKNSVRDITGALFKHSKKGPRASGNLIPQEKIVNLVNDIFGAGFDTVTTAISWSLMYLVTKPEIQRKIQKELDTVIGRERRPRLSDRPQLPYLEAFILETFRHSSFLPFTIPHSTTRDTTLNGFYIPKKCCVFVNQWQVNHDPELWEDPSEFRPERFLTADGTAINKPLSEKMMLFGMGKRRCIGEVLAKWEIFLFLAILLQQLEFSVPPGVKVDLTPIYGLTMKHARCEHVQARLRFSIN
# Cytochrome P450 2C9 = Cytochrome P450 2C9 (Homo sapiens, UniProt P11712); experiment: Inhibition of CYP2C9; type: ADME
# Cytochrome P450 2C19 = Cytochrome P450 2C19 (Homo sapiens, UniProt P33261); experiment: Inhibition of CYP2C19; type: ADME
# Cytochrome P450 2D6 = Cytochrome P450 2D6 (Homo sapiens, UniProt P10635); experiment: Inhibition of CYP2D6; type: ADME
# CT26 [23] = experiment: Reduction of tumor volume in CT26 xenografted in BALB/c mouse at 50 mg/kg, ip relative to control; type: functional; parameters: scale not given: the % may be the effect or the level left; conditions: route intraperitoneal
# A549 [24] = experiment: Reduction of tumor burden in A549 cells xenografted in nu/nu mouse at 40 mg/kg, ip relative to control; type: functional; parameters: scale not given: the % may be the effect or the level left; conditions: route intraperitoneal
# [25] = Cmax in mouse at 25 mg/kg, po; type: ADME, organism-based; parameters: dose 25 mg/kg, route oral; conditions: in vivo
# [26] = Cmax in rat at 25 mg/kg, po; type: ADME, organism-based; parameters: dose 25 mg/kg, route oral; conditions: in vivo
# [27] = Cmax in dog at 25 mg/kg, po; type: ADME, organism-based, Canis lupus familiaris; parameters: dose 25 mg/kg, route oral; conditions: in vivo
# Chain of Proto-oncogene tyrosine-protein kinase Src (P12931 2-536 limits assumed): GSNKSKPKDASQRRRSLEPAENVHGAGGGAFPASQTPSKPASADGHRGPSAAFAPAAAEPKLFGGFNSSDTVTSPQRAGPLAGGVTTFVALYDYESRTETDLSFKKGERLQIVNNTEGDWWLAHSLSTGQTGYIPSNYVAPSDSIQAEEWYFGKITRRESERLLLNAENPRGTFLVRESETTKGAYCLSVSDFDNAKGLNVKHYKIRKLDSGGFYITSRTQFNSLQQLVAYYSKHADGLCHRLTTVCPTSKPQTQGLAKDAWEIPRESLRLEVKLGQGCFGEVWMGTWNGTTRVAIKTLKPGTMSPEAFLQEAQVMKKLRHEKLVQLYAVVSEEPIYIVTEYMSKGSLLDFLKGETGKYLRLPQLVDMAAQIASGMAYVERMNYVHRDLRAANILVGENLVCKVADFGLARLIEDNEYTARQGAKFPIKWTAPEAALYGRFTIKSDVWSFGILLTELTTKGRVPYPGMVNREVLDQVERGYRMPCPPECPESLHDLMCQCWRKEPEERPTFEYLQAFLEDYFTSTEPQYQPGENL
# Chain of Cytochrome P450 2C19 (P33261 whole entry): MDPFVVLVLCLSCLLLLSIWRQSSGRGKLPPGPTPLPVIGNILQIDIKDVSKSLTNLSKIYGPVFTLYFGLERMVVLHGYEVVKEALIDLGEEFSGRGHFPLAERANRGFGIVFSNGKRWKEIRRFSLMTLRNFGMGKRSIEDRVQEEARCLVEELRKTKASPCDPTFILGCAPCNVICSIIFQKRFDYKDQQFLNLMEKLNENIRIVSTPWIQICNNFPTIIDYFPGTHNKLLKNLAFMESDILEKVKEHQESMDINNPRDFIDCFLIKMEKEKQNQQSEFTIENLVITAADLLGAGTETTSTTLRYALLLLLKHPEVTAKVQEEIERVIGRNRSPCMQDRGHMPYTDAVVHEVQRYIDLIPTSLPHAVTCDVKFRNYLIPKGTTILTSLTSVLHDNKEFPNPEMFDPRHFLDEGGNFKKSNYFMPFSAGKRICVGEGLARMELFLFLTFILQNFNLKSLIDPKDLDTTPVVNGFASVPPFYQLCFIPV
# Chain of Cytochrome P450 2D6 (P10635 whole entry): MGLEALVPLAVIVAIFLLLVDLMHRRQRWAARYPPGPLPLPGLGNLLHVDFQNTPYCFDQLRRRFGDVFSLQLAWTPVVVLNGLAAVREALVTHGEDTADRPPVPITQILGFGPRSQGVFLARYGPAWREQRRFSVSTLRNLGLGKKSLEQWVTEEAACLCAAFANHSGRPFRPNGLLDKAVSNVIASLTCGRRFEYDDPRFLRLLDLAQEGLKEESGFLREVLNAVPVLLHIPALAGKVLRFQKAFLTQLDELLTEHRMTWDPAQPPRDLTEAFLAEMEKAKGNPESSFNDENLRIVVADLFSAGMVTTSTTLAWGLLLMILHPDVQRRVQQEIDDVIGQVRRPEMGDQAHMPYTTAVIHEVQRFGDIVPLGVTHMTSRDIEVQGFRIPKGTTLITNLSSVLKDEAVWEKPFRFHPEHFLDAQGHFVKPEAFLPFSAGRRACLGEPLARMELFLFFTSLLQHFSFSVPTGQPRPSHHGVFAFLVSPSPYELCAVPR
# Chain of Cytochrome P450 3A4 (P08684 whole entry): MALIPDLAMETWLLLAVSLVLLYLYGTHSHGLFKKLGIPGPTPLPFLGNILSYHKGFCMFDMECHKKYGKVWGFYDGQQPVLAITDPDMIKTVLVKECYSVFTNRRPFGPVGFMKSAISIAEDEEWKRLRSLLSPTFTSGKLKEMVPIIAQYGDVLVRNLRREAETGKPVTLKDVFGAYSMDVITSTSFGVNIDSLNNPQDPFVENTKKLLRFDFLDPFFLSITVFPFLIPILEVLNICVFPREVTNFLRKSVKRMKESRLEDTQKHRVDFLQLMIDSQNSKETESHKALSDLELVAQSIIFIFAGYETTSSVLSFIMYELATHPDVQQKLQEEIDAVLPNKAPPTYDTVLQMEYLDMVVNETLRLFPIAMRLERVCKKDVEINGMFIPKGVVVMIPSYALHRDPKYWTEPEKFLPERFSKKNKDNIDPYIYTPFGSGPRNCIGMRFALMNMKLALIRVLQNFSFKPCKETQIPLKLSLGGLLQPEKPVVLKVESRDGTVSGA
# Chain of Cytochrome P450 2C9 (P11712 whole entry): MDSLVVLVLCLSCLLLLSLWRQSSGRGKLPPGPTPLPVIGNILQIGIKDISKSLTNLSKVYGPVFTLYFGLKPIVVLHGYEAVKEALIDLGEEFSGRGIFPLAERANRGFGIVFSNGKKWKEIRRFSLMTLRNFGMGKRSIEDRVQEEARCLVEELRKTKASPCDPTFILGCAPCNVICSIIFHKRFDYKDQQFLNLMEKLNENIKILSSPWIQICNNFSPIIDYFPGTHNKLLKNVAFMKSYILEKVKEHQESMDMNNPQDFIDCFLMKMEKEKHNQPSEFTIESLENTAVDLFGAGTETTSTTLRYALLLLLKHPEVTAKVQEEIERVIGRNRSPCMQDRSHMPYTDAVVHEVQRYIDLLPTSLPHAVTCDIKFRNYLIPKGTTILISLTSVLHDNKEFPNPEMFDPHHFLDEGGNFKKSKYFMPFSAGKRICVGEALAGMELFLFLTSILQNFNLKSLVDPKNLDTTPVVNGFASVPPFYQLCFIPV
# Chain of Platelet-derived growth factor receptor beta (P09619 whole entry): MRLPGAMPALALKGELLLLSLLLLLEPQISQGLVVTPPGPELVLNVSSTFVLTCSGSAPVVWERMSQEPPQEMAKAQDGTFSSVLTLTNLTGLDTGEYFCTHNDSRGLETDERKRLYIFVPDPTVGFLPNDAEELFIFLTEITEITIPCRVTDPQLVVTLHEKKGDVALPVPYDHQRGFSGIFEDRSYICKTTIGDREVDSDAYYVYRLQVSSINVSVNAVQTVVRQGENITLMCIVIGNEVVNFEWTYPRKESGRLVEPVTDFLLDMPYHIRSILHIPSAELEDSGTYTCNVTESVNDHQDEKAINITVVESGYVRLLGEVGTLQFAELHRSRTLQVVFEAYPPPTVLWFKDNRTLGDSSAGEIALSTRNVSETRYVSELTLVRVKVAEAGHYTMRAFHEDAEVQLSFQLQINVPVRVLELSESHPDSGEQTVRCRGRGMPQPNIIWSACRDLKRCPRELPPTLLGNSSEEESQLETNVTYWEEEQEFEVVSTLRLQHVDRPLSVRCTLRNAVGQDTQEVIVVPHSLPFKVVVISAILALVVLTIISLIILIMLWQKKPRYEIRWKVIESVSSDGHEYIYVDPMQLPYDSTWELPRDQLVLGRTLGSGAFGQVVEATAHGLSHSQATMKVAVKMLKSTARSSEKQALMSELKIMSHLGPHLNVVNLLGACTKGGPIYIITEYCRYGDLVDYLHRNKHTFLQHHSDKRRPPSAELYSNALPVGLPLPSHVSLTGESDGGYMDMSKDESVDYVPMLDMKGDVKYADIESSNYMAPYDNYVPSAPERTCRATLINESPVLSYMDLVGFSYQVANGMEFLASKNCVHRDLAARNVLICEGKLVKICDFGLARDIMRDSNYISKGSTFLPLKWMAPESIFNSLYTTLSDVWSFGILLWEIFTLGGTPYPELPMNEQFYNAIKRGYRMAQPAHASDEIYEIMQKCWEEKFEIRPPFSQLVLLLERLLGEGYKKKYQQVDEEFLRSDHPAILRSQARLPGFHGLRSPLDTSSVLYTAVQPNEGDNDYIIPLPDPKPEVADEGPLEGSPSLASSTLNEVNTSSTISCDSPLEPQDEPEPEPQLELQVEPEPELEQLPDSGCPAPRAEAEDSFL
compound,measurement,setting,value
Cc1cccc(C)c1-c1cc(C)c2nc(Nc3ccc(OCCN4CCN(C)CC4)cc3)nnc2c1,IC50,CT26 [1],6.6 µM
Cc1cccc(C)c1-c1cc(C)c2nc(Nc3ccc(N(CCN4CCCC4)C(=O)c4ccccc4)cc3)nnc2c1,IC50,CT26 [1],2.4 µM
same,IC50,[2],0.016 µM
Cc1cnc(F)cc1-c1cc(C)c2nc(Nc3ccc(OCCN4CCCC4)cc3)nnc2c1,IC50,[2],0.204 µM
COc1cc2c(cc1O)CCN[C@]21CS[C@H]2c3c(OC(C)=O)c(C)c4c(c3[C@@H](COC1=O)N1[C@@H]2[C@H]2c3c(cc(C)c(OC)c3O)C[C@@H]([C@@H]1O)N2C)OCO4,IC50,[2],0.208 µM
COc1ccc(Cl)c(-c2cc(C)c3nc(Nc4ccc(OCCN5CCCC5)cc4)nnc3c2)c1,IC50,[2],0.778 µM
Cc1cccc(C)c1-c1cc(C)c2nc(Nc3ccc(C(=O)NN4CCN(C)CC4)cc3)nnc2c1,IC50,CT26 [1],6.7 µM
same,IC50,[2],0.015 µM
CC(=O)Nc1cc(-c2c(C)cccc2C)cc2nnc(Nc3ccc(OCCN4CCCC4)cc3)nc12,IC50,[2],0.014 µM
Cc1cccc(C)c1-c1cc(C)c2nc(Nc3ccc(C(=O)NN4CCNCC4)cc3)nnc2c1,IC50,[2],0.013 µM
Cc1cc(-c2c(Cl)cccc2Cl)cc2nnc(Nc3ccc(OCCN4CCCC4)cc3)nc12,Tmax,[3],8 h
same,Tmax,[4],8.8 h
same,Tmax,[5],4 h
same,half-life,[6],8 h
same,half-life,[7],4.6 h
same,half-life,[8],13 h
same,AUC,Mus musculus [9],15.3 µg·h/mL
same,AUC,Rattus norvegicus [10],8.01 µg·h/mL
same,AUC,Canis familiaris [11],8.68 µg·h/mL
same,CL/F,[12],0.762 L/h/kg
same,CL/F,[13],0.762 L/h/kg
same,CL/F,[14],0.87 L/h/kg
same,Vdss,Mus musculus [15],16.1 L/kg
same,Vdss,Rattus norvegicus [16],9.4 L/kg
same,Vdss,Canis familiaris [17],18.7 L/kg
same,bioavailability,[18],74%
same,bioavailability,[19],35%
same,bioavailability,[20],42%
same,Ki,[21],2.09 µM
same,IC50,MOLT-4,0.25 µM
same,IC50,K562,0.215 µM
same,IC50,CT26 [1],0.75 µM
same,IC50,COLO 205,2.5 µM
same,IC50,HT-29,> 5 µM
same,IC50,MDA-MB-231,0.24 µM
same,IC50,MCF7,0.085 µM
same,IC50,A549 [22],0.9 µM
same,IC50,Cytochrome P450 3A4,62 µM
same,IC50,Cytochrome P450 1A2,> 100 µM
same,IC50,Cytochrome P450 2C9,> 100 µM
same,IC50,Cytochrome P450 2C19,12 µM
same,IC50,Cytochrome P450 2D6,33 µM
same,Activity,CT26 [23],60%
same,Activity,A549 [24],86%
same,Cmax,[25],0.415 µg/mL
same,Cmax,[26],0.348 µg/mL
same,Cmax,[27],0.679 µg/mL
Clc1cccc(Cl)c1-c1ccc2nc(Nc3ccc(OCCN4CCCC4)cc3)nnc2c1,IC50,[2],0.03 µM
c1ccc2nc(Nc3ccc(OCCN4CCCC4)cc3)nnc2c1,IC50,[2],> 10 µM
CNc1cc(-c2c(C)cccc2C)cc2nnc(Nc3ccc(OCCN4CCCC4)cc3)nc12,IC50,[2],0.01 µM
Cc1cccc(C)c1-c1cc(NS(C)(=O)=O)c2nc(Nc3ccc(OCCN4CCCC4)cc3)nnc2c1,IC50,[2],0.021 µM
Cc1ccc(CN)cc1-c1cc(C)c2nc(Nc3ccc(S(=O)(=O)NCCN4CCCC4)cc3)nnc2c1,IC50,[2],0.353 µM
Cc1cccc(C)c1-c1cc(C)c2nc(Nc3cccc(N(CCN4CCCC4)C(=O)c4ccccc4)c3)nnc2c1,IC50,[2],0.018 µM
Cc1cccc(C)c1-c1cc(C)c2nc(Nc3ccc(OCCN4CCCC4)cc3)nnc2c1,Tmax,[3],6 h
same,Tmax,[4],6 h
same,Tmax,[5],1.5 h
same,half-life,[6],9.5 h
same,half-life,[7],5.6 h
same,half-life,[8],19 h
same,AUC,Mus musculus [9],19.1 µg·h/mL
same,AUC,Rattus norvegicus [10],9.57 µg·h/mL
same,AUC,Canis familiaris [11],9.68 µg·h/mL
same,CL/F,[12],1.13 L/h/kg
same,CL/F,[13],0.552 L/h/kg
same,CL/F,[14],0.306 L/h/kg
same,Vdss,Mus musculus [15],11.4 L/kg
same,Vdss,Rattus norvegicus [16],7.2 L/kg
same,Vdss,Canis familiaris [17],8.6 L/kg
same,bioavailability,[18],86%
same,bioavailability,[19],20%
same,bioavailability,[20],68%
same,IC50,CT26 [1],2.3 µM
same,IC50,Cytochrome P450 3A4,42 µM
same,IC50,Cytochrome P450 1A2,> 100 µM
same,IC50,Cytochrome P450 2C9,> 100 µM
same,IC50,Cytochrome P450 2C19,12 µM
same,IC50,Cytochrome P450 2D6,25 µM
same,Cmax,[25],0.79 µg/mL
same,Cmax,[26],0.419 µg/mL
same,Cmax,[27],5.24 µg/mL
Cc1cccc(C)c1-c1cc(C)c2nc(Nc3ccnc(OCCN4CCCC4)c3)nnc2c1,IC50,CT26 [1],2.4 µM
Cc1cccc(C)c1-c1cc(N)c2nc(Nc3ccc(OCCN4CCCC4)cc3)nnc2c1,IC50,[2],0.01 µM
CCN(CC)CCOc1cccc(Nc2nnc3cc(-c4c(C)cccc4C)cc(C)c3n2)c1,IC50,CT26 [1],2.5 µM
Cc1cc2nc(Nc3ccc(S(=O)(=O)NCCN4CCCC4)cc3)nnc2cc1N,IC50,[2],0.092 µM
Cc1ccc2nnc(Nc3ccc(S(=O)(=O)NCCN4CCCC4)cc3)nc2c1,IC50,[2],> 10 µM
Cc1cc2nc(Nc3ccc(S(=O)(=O)NCCN4CCCC4)cc3)nnc2cc1Br,IC50,[2],> 10 µM
